The values that follow come from PMC10808066, “The CRISPR effector Cam1 mediates membrane depolarization for phage defence” (Nature, 2024).

Values joined by “and” are separate entries in the source; they are usually repeats but may differ in a detail not shown here. Identical values can stand only once.

Assay [1] deals with MvCam1-His (Methylomarium vadi). Nature of the assay: cross-linking; in vivo in S. aureus, 2 mM DSS and BMH, 1 h at room temperature, with or without aTc; Western blot of lysates with anti-His6. On the technique in general: In western blotting, separated proteins are transferred to a membrane and probed.
In assay [2] the target is gpCam1-His (unknown Gammaproteobacterium). Described as above.
Assay [3] deals with NhCam1–His (Nitrosococcus halophilus Nc4). The assay is described as above.
For assay [4], the target named is MGSS–His6–TEV–NhCam1 (full-length NhCam1) (Nitrosococcus halophilus Nc4). The assay can be described thus: SEC-MALS; full-length Cam1 in DDM micelles, conjugate analysis; 25 mM Tris pH 8, 500 mM NaCl, 2 mM β-mercaptoethanol, 0.02% DDM.
Assay [5] deals with T1, NhCam1 (cyclic oligoadenylate-activated membrane protein 1; WP_013033759) (Nitrosococcus halophilus, UniProt D5BXZ3, T97A).
T1 construct: gene Nhal_2839; CARF domain, residues 67–206
Nature of the assay: ITC. It is filed as binding.

The target in assay [6] is T2, NhCam1 (cyclic oligoadenylate-activated membrane protein 1; WP_013033759) (Nitrosococcus halophilus, UniProt D5BXZ3).
T2 construct: gene Nhal_2839; CARF domain, residues 67–206 (ITC; Methods: 66–206); residues 42–206 (crystal); homodimer, one ligand per dimer
T2 sequence (D5BXZ3 67-206): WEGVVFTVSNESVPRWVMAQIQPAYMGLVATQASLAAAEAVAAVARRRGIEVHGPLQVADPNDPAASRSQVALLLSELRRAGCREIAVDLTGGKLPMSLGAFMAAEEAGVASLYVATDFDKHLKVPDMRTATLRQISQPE
The assay can be described thus: ITC; […] Å X-ray crystal structure. It is filed as binding. In general terms: ITC needs no label: the signal is the heat of the interaction.

Assay [7] concerns the target T3, NhCam1 (cyclic oligoadenylate-activated membrane protein 1; WP_013033759) (Nitrosococcus halophilus, UniProt D5BXZ3, T183A/Y180A).
T3 construct: gene Nhal_2839; CARF domain, residues 67–206
Nature of the assay: ITC. It is filed as binding.

Assay [8] addresses T4, NhCam1 (cyclic oligoadenylate-activated membrane protein 1; WP_013033759) (Nitrosococcus halophilus, UniProt D5BXZ3, N76A/S75A).
T4 construct: gene Nhal_2839; CARF domain, residues 67–206
Nature of the assay: ITC. It is filed as binding.

In assay [9] the target is T5, NhCam1 (cyclic oligoadenylate-activated membrane protein 1; WP_013033759) (Nitrosococcus halophilus, UniProt D5BXZ3, M194A/P192A/V79A).
T5 construct: gene Nhal_2839; CARF domain, residues 67–206
Nature of the assay: ITC. It is filed as binding.

In the case of MvCam1-His (natural protein), the stoichiometry N – broadly, the number of molecules, sites or subunits per partner or assembly – in assay [1] is 2 and 4.

On to gpCam1-His (natural protein), for which, in [2], the stoichiometry N was 2 and 4.

As for NhCam1–His (natural protein), the stoichiometry N in assay [3] was 2 and 4.

In [4], “MGSS–His6–TEV–NhCam1 (full-length NhCam1) (natural protein)” came in with a stoichiometry N of 4.

On to `Nc1ncnc2c1ncn2[C@@H]1O[C@@H]2COP(=O)(O)O[C@H]3[C@@H](O)[C@H](n4cnc5c(N)ncnc54)O[C@@H]3COP(=O)(O)O[C@H]3[C@@H](O)[C@H](n4cnc5c(N)ncnc54)O[C@@H]3COP(=O)(O)O[C@H]3[C@@H](O)[C@H](n4cnc5c(N)ncnc54)O[C@@H]3COP(=O)(O)O[C@H]2[C@H]1O` [cA4], for which the Kd (usually a measure of binding affinity in units of concentration) in [5] came to 3.74 µM; in [6], 0.012 µM; in assay [7], 4.5 µM; in assay [8], 4 µM; in assay [9], 2.1 µM.
